# Test results: patent EP4813989A1, “CRYSTAL, PHARMACEUTICAL COMPOSITION, PREPARATION METHOD THEREFOR, AND USE THEREOF” (TYK Medicines, Inc., priority 2023, dated 2025)
# Legend:
# Type in all cases: physicochemical
# [1] = Dynamic vapor sorption (DVS) hygroscopicity
# Experimental: Dynamic vapor sorption (DVS) was used to investigate hygroscopicities of an active pharmaceutical ingredient in different crystal forms.
# Determination method: • instrument: dynamic vapor sorption analyzer; temperature: 25°C; protective gas and flow rate: N2, 200 mL/min; • dm/dt: 0.002%/min; RH range: 0%RH-100%RH; cycle: 1 full cycle.
# [2] = Accelerated test, related substances by HPLC; details: 40°C±2°C, 75%RH±5%RH; for Impurity content RRT0.55 / Impurity content RRT0.66 / Impurity content RRT0.71 / Impurity content RRT0.94 / Impurity content RRT1.02 / Impurity content RRT1.06 / Impurity content RRT1.08 / Impurity content RRT1.15 / Total impurities: open
# Experimental: An investigation method for the accelerated test can be seen in Table 14 below.
# Change results of related substances in each crystal form under the accelerated condition (40°C±2°C, 75%RH±5%RH) can be seen in Table 18.
# HPLC detection results of related substances under the accelerated condition can be seen as follows: Table 18
# [3] = High-humidity test, related substances by HPLC; details: 90%RH±5%RH; for Impurity content RRT0.55 / Impurity content RRT0.66 / Impurity content RRT0.71 / Impurity content RRT0.94 / Impurity content RRT1.02 / Impurity content RRT1.06 / Impurity content RRT1.08 / Impurity content RRT1.15 / Total impurities: open
# Description: An investigation method for the high-humidity test can be seen in Table 12 below.
# Results of related substances in each crystal form under the high-humidity condition (90%RH±5%RH) can be seen in Table 16.
# HPLC detection results of related substances under the high-humidity condition can be seen as follows: Table 16
# [4] = Flowability test (angle of repose); details: listed as amorphous sample
# Experimental: A flowability determination method was as follows: an angle of repose was determined by using a device composed of 2 to 3 funnels connected in series in a staggered manner, and drug powder was slowly and uniformly passed through the funnels onto a stationary base with a diameter d, so as to form a symmetric powder pile with a single layer of powder at the bottom. During the formation of the powder pile, a height of the funnels was maintained within 2-4 cm from a top of the powder pile, a height h of the cone was determined, and the angle of repose was calculated as tanθ=h/(d/2).
# [5] = Light exposure test, related substances by HPLC; details: for Impurity content RRT0.55 / Impurity content RRT0.66 / Impurity content RRT0.71 / Impurity content RRT0.94 / Impurity content RRT1.02 / Impurity content RRT1.06 / Impurity content RRT1.08 / Impurity content RRT1.15 / Total impurities: 4500lx±500lx, open
# Description: An investigation method for the light exposure test can be seen in Table 13 below.
# Results of related substances in each crystal form under the light exposure condition (4500lx±500lx) can be seen in Table 17.
# HPLC detection results of related substances under the light exposure condition can be seen as follows: Table 17
compound,measurement,setting,value
C[C@@H](Nc1ccn2ncc(C3=NOC(C)(C)N3)c2n1)c1cc(F)cc(F)c1F [amorphous form],Hygroscopicity (conclusion),[1],had hygroscopicity
same,DVS weight gain,[1]; humidity increased from 90% to 100%,approximately 3.5%
same,DVS weight loss,[1]; humidity reduced from 100% to 90%,approximately 1.5%
same,Increase of impurity RRT1.08 content,[2]; 32 days,0.03%
same,Impurity content RRT0.55,[2]; 0 day,0.03%
same,Impurity content RRT0.66,[2]; 0 day,0.20%
same,Impurity content RRT0.71,[2]; 0 day,0.16%
same,Impurity content RRT0.94,[2]; 0 day,0.04%
same,Impurity content RRT1.02,[2]; 0 day,0.29%
same,Impurity content RRT1.06,[2]; 0 day,0.07%
same,Impurity content RRT1.08,[2]; 0 day,0.18%
same,Impurity content RRT1.15,[2]; 0 day,0.04%
same,Total impurities,[2]; 0 day,1.01%
same,Impurity content RRT0.55,[2]; 5 days,0.04%
same,Impurity content RRT0.66,[2]; 5 days,0.20%
same,Impurity content RRT0.71,[2]; 5 days,0.17%
same,Impurity content RRT0.94,[2]; 5 days,0.03%
same,Impurity content RRT1.02,[2]; 5 days,0.32%
same,Impurity content RRT1.06,[2]; 5 days,0.08%
same,Impurity content RRT1.08,[2]; 5 days,0.22%
same,Impurity content RRT1.15,[2]; 5 days,0.04%
same,Total impurities,[2]; 5 days,1.09%
same,Impurity content RRT0.55,[2]; 11 days,0.03%
same,Impurity content RRT0.66,[2]; 11 days,0.20%
same,Impurity content RRT0.71,[2]; 11 days,0.17%
same,Impurity content RRT0.94,[2]; 11 days,0.03%
same,Impurity content RRT1.02,[2]; 11 days,0.31%
same,Impurity content RRT1.06,[2]; 11 days,0.08%
same,Impurity content RRT1.08,[2]; 11 days,0.24%
same,Impurity content RRT1.15,[2]; 11 days,0.03%
same,Total impurities,[2]; 11 days,1.10%
same,Impurity content RRT0.55,[2]; 32 days,0.04%
same,Impurity content RRT0.66,[2]; 32 days,0.20%
same,Impurity content RRT0.71,[2]; 32 days,0.18%
same,Impurity content RRT0.94,[2]; 32 days,0.04%
same,Impurity content RRT1.02,[2]; 32 days,0.29%
same,Impurity content RRT1.06,[2]; 32 days,0.06%
same,Impurity content RRT1.08,[2]; 32 days,0.21%
same,Impurity content RRT1.15,[2]; 32 days,0.03%
same,Total impurities,[2]; 32 days,1.05%
same,Increase of impurity RRT1.02 content,[3]; 32 days,0.03%
same,Increase of impurity RRT1.08 content,[3]; 32 days,0.05%
same,Increase of total impurities,[3]; 32 days,0.10%
same,Impurity content RRT0.55,[3]; 0 day,0.03%
same,Impurity content RRT0.66,[3]; 0 day,0.20%
same,Impurity content RRT0.71,[3]; 0 day,0.16%
same,Impurity content RRT0.94,[3]; 0 day,0.04%
same,Impurity content RRT1.02,[3]; 0 day,0.29%
same,Impurity content RRT1.06,[3]; 0 day,0.07%
same,Impurity content RRT1.08,[3]; 0 day,0.18%
same,Impurity content RRT1.15,[3]; 0 day,0.04%
same,Total impurities,[3]; 0 day,1.01%
same,Impurity content RRT0.55,[3]; 5 days,0.03%
same,Impurity content RRT0.66,[3]; 5 days,0.21%
same,Impurity content RRT0.71,[3]; 5 days,0.17%
same,Impurity content RRT0.94,[3]; 5 days,0.03%
same,Impurity content RRT1.02,[3]; 5 days,0.31%
same,Impurity content RRT1.06,[3]; 5 days,0.09%
same,Impurity content RRT1.08,[3]; 5 days,0.19%
same,Impurity content RRT1.15,[3]; 5 days,0.04%
same,Total impurities,[3]; 5 days,1.07%
same,Impurity content RRT0.55,[3]; 11 days,0.03%
same,Impurity content RRT0.66,[3]; 11 days,0.20%
same,Impurity content RRT0.71,[3]; 11 days,0.16%
same,Impurity content RRT0.94,[3]; 11 days,0.03%
same,Impurity content RRT1.02,[3]; 11 days,0.31%
same,Impurity content RRT1.06,[3]; 11 days,0.09%
same,Impurity content RRT1.08,[3]; 11 days,0.25%
same,Impurity content RRT1.15,[3]; 11 days,0.03%
same,Total impurities,[3]; 11 days,1.11%
same,Impurity content RRT0.55,[3]; 32 days,0.03%
same,Impurity content RRT0.66,[3]; 32 days,0.20%
same,Impurity content RRT0.71,[3]; 32 days,0.18%
same,Impurity content RRT0.94,[3]; 32 days,0.04%
same,Impurity content RRT1.02,[3]; 32 days,0.31%
same,Impurity content RRT1.06,[3]; 32 days,0.06%
same,Impurity content RRT1.08,[3]; 32 days,0.23%
same,Impurity content RRT1.15,[3]; 32 days,0.05%
same,Total impurities,[3]; 32 days,1.11%
same,angle of repose,[4],approximately 37.5 °
same,Increase of impurity RRT0.66 content,"[5]; 4500 lx±500 lx, 32 days",0.03%
same,Increase of impurity RRT0.71 content,"[5]; 4500 lx±500 lx, 32 days",0.05%
same,Increase of impurity RRT1.02 content,"[5]; 4500 lx±500 lx, 32 days",0.06%
same,Increase of impurity RRT1.08 content,"[5]; 4500 lx±500 lx, 32 days",0.19%
same,Increase of total impurities,"[5]; 4500 lx±500 lx, 32 days",0.37%
same,Impurity content RRT0.55,[5]; 0 day,0.03%
same,Impurity content RRT0.66,[5]; 0 day,0.20%
same,Impurity content RRT0.71,[5]; 0 day,0.16%
same,Impurity content RRT0.94,[5]; 0 day,0.04%
same,Impurity content RRT1.02,[5]; 0 day,0.29%
same,Impurity content RRT1.06,[5]; 0 day,0.07%
same,Impurity content RRT1.08,[5]; 0 day,0.18%
same,Impurity content RRT1.15,[5]; 0 day,0.04%
same,Total impurities,[5]; 0 day,1.01%
same,Impurity content RRT0.55,[5]; 5 days,0.04%
same,Impurity content RRT0.66,[5]; 5 days,0.20%
same,Impurity content RRT0.71,[5]; 5 days,0.17%
same,Impurity content RRT0.94,[5]; 5 days,0.03%
same,Impurity content RRT1.02,[5]; 5 days,0.32%
same,Impurity content RRT1.06,[5]; 5 days,0.08%
same,Impurity content RRT1.08,[5]; 5 days,0.21%
same,Impurity content RRT1.15,[5]; 5 days,0.04%
same,Total impurities,[5]; 5 days,1.09%
same,Impurity content RRT0.55,[5]; 11 days,0.03%
same,Impurity content RRT0.66,[5]; 11 days,0.21%
same,Impurity content RRT0.71,[5]; 11 days,0.17%
same,Impurity content RRT0.94,[5]; 11 days,0.03%
same,Impurity content RRT1.02,[5]; 11 days,0.33%
same,Impurity content RRT1.06,[5]; 11 days,0.09%
same,Impurity content RRT1.08,[5]; 11 days,0.28%
same,Impurity content RRT1.15,[5]; 11 days,0.03%
same,Total impurities,[5]; 11 days,1.17%
same,Impurity content RRT0.55,[5]; 32 days,0.05%
same,Impurity content RRT0.66,[5]; 32 days,0.23%
same,Impurity content RRT0.71,[5]; 32 days,0.21%
same,Impurity content RRT0.94,[5]; 32 days,0.06%
same,Impurity content RRT1.02,[5]; 32 days,0.35%
same,Impurity content RRT1.06,[5]; 32 days,0.07%
same,Impurity content RRT1.08,[5]; 32 days,0.37%
same,Impurity content RRT1.15,[5]; 32 days,0.05%
same,Total impurities,[5]; 32 days,1.38%
